Activity calls are given as the source filed them. The calls are words filed in the database; no cut-off is given here.
Tests used:
Mus musculus [1] = assay: Anticonvulsant activity in ip dosed albino CF1 mouse assessed as protection against maximal electroshock-induced seizure after 30 mins; format: functional; details: 0.5 h
[2] = Neurotoxicity in ip dosed albino CF1 mouse assessed as median neurological impairing dose after 30 mins; format: toxicity, organism-based; details: in vivo
Mus musculus [3] = assay: Anticonvulsant activity in ip dosed albino CF1 mouse assessed as protection against subcutaneous pentylenetetrazol-induced seizure; format: functional, organism-based
Mus musculus [4] = assay: Anticonvulsant activity in ip dosed albino CF1 mouse assessed as time of peak effect for protection against maximal electroshock-induced seizure; format: functional
Mus musculus [5] = assay: Neurotoxicity in ip dosed albino CF1 mouse assessed as time of peak effect for median neurological impairing; format: toxicity, organism-based; details: in vivo
Rattus norvegicus [6] = assay: Anticonvulsant activity in po dosed albino Sprague-Dawley rat assessed as time of peak effect for protection against maximal electroshock seizure; format: functional
[7] = Toxicity in po dosed albino Sprague-Dawley rat assessed as behavioural toxicity; format: organism-based; details: in vivo
Rattus norvegicus [8] = assay: Anticonvulsant activity in po dosed albino Sprague-Dawley rat assessed as protection against maximal electroshock seizure; format: functional
Rattus norvegicus [9] = assay: Toxicity in po dosed albino Sprague-Dawley rat assessed as time of peak effect for behavioural toxicity; format: organism-based; details: in vivo
Mus musculus [10] = assay: Protective index, ratio of TD50 for ip dosed albino CF1 mouse to ED50 for ip dosed albino CF1 mouse by maximal electroshock test; format: functional
Mus musculus [11] = assay: Anticonvulsant activity in ip dosed albino CF1 mouse assessed as protection against 6 Hz psychomotor seizure after 30 mins; format: functional; details: 0.5 h

Row | Structure (SMILES) | ED50 (Mus musculus [1]) [mg/kg] | TD50 at 0.5 h [2] [mg/kg] | Activity (Mus musculus [3]) | Time (Mus musculus [4]) [h] | Time (Mus musculus [5]) [h] | Time (Rattus norvegicus [6]) [h] | TD50 [7] [mg/kg] | ED50 (Rattus norvegicus [8]) [mg/kg] | Time (Rattus norvegicus [9]) [h] | Ratio TD50/ED50 (Mus musculus [10]) | ED50 (Mus musculus [11]) [mg/kg]
1 | CC(C)(C)[C@@H](N)C(=O)NCc1ccc(-c2ccccc2)cc1 | 30 | 30 | inactive | 0.5 | 0.5 | – | – | – | – | – | –
2 | Cc1ccc(CNC(=O)[C@H](N)C(C)C)cc1 | > 300 | > 300 | inactive | 0.5 | 0.5 | 1 | > 50 | 50 | 0.25 | – | –
3 | CC(C)[C@H](N)C(=O)NCc1ccc(COc2cccc(F)c2)cc1 | 30 | 100 | inactive | – | – | 0.25 | > 30 | > 30 | 0.25 | – | –
4 | CC(C)(C)[C@@H](N)C(=O)NCc1ccc(OC(F)(F)F)cc1 | 28 | 73 | inactive | 1 | 0.25 | 2 | > 30 | 23 | 0.25 | 2.6 | –
5 | COC[C@H](N)C(=O)NCc1ccc(COc2cccc(F)c2)cc1 | 30 | 100 | inactive | – | – | – | – | – | – | – | –
6 | CC(C)[C@H](N)C(=O)NCc1ccccc1 | > 300 | > 300 | inactive | – | – | – | – | – | – | – | –
7 | CC(C)(C)[C@@H](N)C(=O)NCc1ccc(COc2cccc(F)c2)cc1 | 30 | 100 | inactive | 0.5 | 0.5 | 2 | > 30 | 30 | 0.25 | – | > 75
8 | O=C1NC(=O)C(c2ccccc2)(c2ccccc2)N1 [PHENYTOIN] | – | 27 | – | 2 | 0.25 | 4 | > 3000 | – | – | – | –
9 | CC(C)(C)[C@@H](N)C(=O)NCc1ccc(OCc2cccc(F)c2)cc1 | 30 | 300 | inactive | 0.5 | 0.5 | 0.25 | > 30 | > 30 | 0.25 | – | –
10 | COc1ccc(CNC(=O)[C@H](N)C(C)C)cc1 | > 300 | 30 | inactive | 0.5 | 0.5 | 0.25 | > 30 | > 30 | 0.25 | – | –
11 | CCCC(CCC)C(=O)[O-].[Na+] [VALPROATE SODIUM] | 270 | – | – | 0.5 | 0.25 | 0.5 | – | – | 0.5 | – | –
12 | CC(C)(C)[C@@H](N)C(=O)NCc1ccc(C(F)(F)F)cc1 | 24 | 133 | inactive | 0.25 | 0.25 | 0.5 | > 30 | < 30 | 0.25 | 5.5 | –
13 | CCC1(c2ccccc2)C(=O)NC(=O)NC1=O [PHENOBARBITAL] | – | 66 | – | 1 | 0.5 | 5 | – | – | 0.5 | 3 | –
14 | C[C@H](N)C(=O)NCc1ccccc1 | > 300 | > 300 | – | – | – | – | – | – | – | – | –
15 | CC(C)[C@@H](N)C(=O)NCc1ccc(-c2ccccc2)cc1 | 30 | > 300 | inactive | 0.5 | 0.5 | 2 | > 30 | 30 | 0.25 | – | –

From ChEMBL document CHEMBL1828555, “Primary amino acid derivatives: substitution of the 4'-N'-benzylamide site in (R)-N'-benzyl 2-amino-3-methylbutanamide, (R)-N'-benzyl 2-amino-3,3-dimethylbutanamide, and (R)-N'-benzyl 2-amino-3-methoxypropionamide provides potent anticonvulsants with pain-attenuating properties” (J Med Chem, 2011)
